“And” between values parts separate entries of the source, which are not always exact repeats. Equal entries are not always repeated. Structures can show the parent of a compound that is named as a salt.
The compounds below were run against α7 nAChR (Rattus norvegicus, UniProt Q05941) (assay: [3H]-MLA competition binding assay, rat brain membranes). Settings: Ki, inhibition of [3H]-MLA binding (3.0 to 4.0 nM), Sprague-Dawley rat whole brain minus cerebellum homogenate, 1 hour at 25° C.
α7 nAChR, sequence (Q05941 23-502): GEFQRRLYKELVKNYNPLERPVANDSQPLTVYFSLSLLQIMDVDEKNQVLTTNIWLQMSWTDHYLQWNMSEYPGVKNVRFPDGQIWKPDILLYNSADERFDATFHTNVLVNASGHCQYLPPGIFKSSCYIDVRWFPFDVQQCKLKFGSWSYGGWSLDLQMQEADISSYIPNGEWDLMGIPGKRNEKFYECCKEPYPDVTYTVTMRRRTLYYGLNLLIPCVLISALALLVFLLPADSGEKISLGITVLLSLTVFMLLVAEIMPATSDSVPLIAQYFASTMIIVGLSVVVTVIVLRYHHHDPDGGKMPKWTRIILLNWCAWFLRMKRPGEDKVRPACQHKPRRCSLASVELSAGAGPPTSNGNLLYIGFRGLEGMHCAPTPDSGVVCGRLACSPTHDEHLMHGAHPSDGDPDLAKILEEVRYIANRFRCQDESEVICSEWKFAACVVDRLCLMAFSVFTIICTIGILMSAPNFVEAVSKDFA
Protocol: Membrane Preparation. Male Sprague-Dawley rats (300-350 g) are sacrificed by decapitation and the brains (whole brain minus cerebellum) are dissected quickly, weighed and homogenized in 9 volumes/g wet weight of ice-cold 0.32 M sucrose using a rotating pestle on setting 50 (10 up and down strokes). The homogenate is centrifuged at 1,000×g for 10 minutes at 4° C. The supernatant is collected and centrifuged at 20,000×g for 20 minutes at 4° C. The resulting pellet is resuspended to a protein concentration of 1-8 mg/mL. Aliquots of 5 mL homogenate are frozen at −80° C. until needed for the assay.
Binding Assay. […] Filters are pre-soaked in 50 mm Tris HCl pH 7.0-0.05% polyethylenimine. The filters are rapidly washed two times with 5 mL aliquots of cold 0.9% saline and then counted for radioactivity by liquid
Data Analysis. […] Hill coefficients were obtained using non-linear regression (GraphPad Prism sigmoidal dose-response with variable slope).

O=C(N[C@H]1CN2CCC1CC2)c1ncc(-c2ccccc2)s1 [Example 90, N-[(3R)-1-azabicyclo[2.2.2]oct-3-yl]-5-phenyl-1,3-thiazole-2-carboxamide] was tested. Which Ki did it give?
The Ki was 80 to 150 nM.

For N#Cc1ccc(C(=O)N[C@H]2CN3CCC2CC3)s1 [Example 18, N-[(3R)-1-Azabicyclo[2.2.2]oct-3-yl]-5-cyano-thiophene-2-carboxamide Hydrochloride], which Ki is on record?
The Ki was 240 to 290 nM.

For O=C(N[C@H]1CN2CCC1CC2)c1ccc(-c2ccccn2)s1 [Example 20, N-[(3R)-1-Azabicyclo[2.2.2]oct-3-yl]-5-(pyridin-2-yl)-thiophene-2-carboxamide], which Ki is on record?
Its Ki is 3 to 5 nM.

How did the Ki turn out when O=C(N[C@H]1CN2CCC1CC2)c1cnc(-c2ccccc2)o1 [Example 155, N-[(3R)-1-azabicyclo[2.2.2]oct-3-yl]-2-phenyl-1,3-oxazole-5-carboxamide 4-methylbenzenesulfonate] was run?
The Ki was 1380 nM.

Which Ki does the source give for O=C(N[C@H]1CN2CCC1CC2)c1ncc(-c2ccc(Br)cc2)o1 [Example 88, N-[(3R)-1-azabicyclo[2.2.2]oct-3-yl]-5-(4-bromophenyl)-1,3-oxazole-2-carboxamide 4-methylbenzenesulfonate] here?
Its Ki is 65 to 80 nM.

For O=C(N[C@H]1CN2CCC1CC2)c1cc(-c2ccccc2)cs1 [Example 8, N-[(3R)-1-azabicyclo[2.2.2]oct-3-yl]4-phenyl-thiophene-2-carboxamide hydrochloride], which Ki is on record?
Its Ki is 46 nM.

Which Ki does the source give for O=C(N[C@H]1CN2CCC1CC2)c1ccc(-c2ccccc2Cl)s1 [Example 4, N-[(3R)-1-azabicyclo[2.2.2]oct-3-yl]-5-(2-chlorophenyl)-thiophene-2-carboxamide hydrochloride] here?
Its Ki is 60 to 73 nM.

O=C(N[C@H]1CN2CCC1CC2)c1ncc(-c2cccc(Cl)c2)o1 [Example 79, N-[(3R)-1-Azabicyclo[2.2.2]oct-3-yl]-5-(3-chlorophenyl)-1,3-oxazole-2-carboxamide 4-Methylbenzenesulfonate] was tested. Which Ki did it give?
Its Ki is 20 to 75 nM.

For Cc1cc(C(=O)N[C@H]2CN3CCC2CC3)oc1C [Example 128, N-[(3R)-1-azabicyclo[2.2.2]oct-3-yl]-4,5-dimethyl-furan-2-carboxamide hydrochloride], which Ki is on record?
Its Ki is 6 to 7 nM.

With O=C(N[C@H]1CN2CCC1CC2)c1ncc(-c2ccccc2Cl)s1 [Example 94, N-[(3R)-1-azabicyclo[2.2.2]oct-3-yl]-5-(2-chlorophenyl)-1,3-thiazole-2-carboxamide 4-methylbenzenesulfonate] as the compound, how does the Ki read?
Its Ki is 125 nM.

Which Ki does the source give for O=C(N[C@H]1CN2CCC1CC2)c1ccc(Sc2ccccc2)s1 [Example 27, N-[(3R)-1-azabicyclo[2.2.2]oct-3-yl]-5-(phenylsulfanyl)-thiophene-2-carboxamide] here?
Its Ki is 35 to 160 nM.

For O=C(N[C@H]1CN2CCC1CC2)c1ccc(-c2cccc(OCc3ccccc3)c2)s1 [Example 9, N-[(3R)-1-azabicyclo[2.2.2]oct-3-yl]-5-(3-benzyloxyphenyl)-thiophene-2-carboxamide hydrochloride], which Ki is on record?
The Ki was 540 to 570 nM.

How did the Ki turn out when COc1ccccc1-c1cnc(C(=O)N[C@H]2CN3CCC2CC3)o1 [Example 84, N-[(3R)-1-azabicyclo[2.2.2]oct-3-yl]-5-(2-methoxyphenyl)-1,3-oxazole-2-carboxamide 4-methylbenzenesulfonate] was run?
Its Ki is 1100 to 1490 nM.

Which Ki does the source give for Cc1nc(C(=O)N[C@H]2CN3CCC2CC3)sc1-c1ccccc1 [Example 89, N-[(3R)-1-Azabicyclo[2.2.2]oct-3-yl]-4-methyl-5-phenyl-1,3-thiazole-2-carboxamide 4-Methylbenzenesulfonate] here?
Its Ki is 310 to 400 nM.

Which Ki does the source give for Nc1ccccc1-c1ccc(C(=O)N[C@H]2CN3CCC2CC3)s1 [Example 12, 5-(2-Aminophenyl)-N-[(3R)-1-azabicyclo[2.2.2]oct-3-yl]-thiophene-2-carboxamide] here?
The Ki was 45 to 75 nM.

With O=C(N[C@H]1CN2CCC1CC2)c1ccc(Sc2ccc(Cl)cc2)s1 [Example 33, N-[(3R)-1-Azabicyclo[2.2.2]oct-3-yl]-5-(4-chlorophenylsulfanyl)-thiophene-2-carboxamide] as the compound, how does the Ki read?
Its Ki is 27 nM.

With COc1ccc(-c2ccc(C(=O)N[C@H]3CN4CCC3CC4)o2)cc1 [Example 134, N-[(3R)-1-azabicyclo[2.2.2]oct-3-yl]-5-(4-methoxy-phenyl)-furan-2-carboxamide hydrochloride] as the compound, how does the Ki read?
Its Ki is 60 to 100 nM.

O=C(N[C@H]1CN2CCC1CC2)c1ccc(-c2cc(F)cc(F)c2)o1 [Example 133, N-[(3R)-1-azabicyclo[2.2.2]oct-3-yl]-5-(3,5-difluorophenyl)-furan-2-carboxamide hydrochloride] was tested. Which Ki did it give?
The Ki was 30 to 70 nM.

How did the Ki turn out when O=C(N[C@H]1CN2CCC1CC2)c1ccc(Oc2ccccc2)o1 [Example 151, N-[(3R)-1-Azabicyclo[2.2.2]oct-3-yl]-5-phenoxy-furan-2-carboxamide 4-Methylbenzenesulfonate] was run?
Its Ki is 225 to 835 nM.

Cc1cnc(C(=O)N[C@H]2CN3CCC2CC3)s1 [Example 98, N-[(3R)-1-azabicyclo[2.2.2]oct-3-yl]-5-methyl-1,3-thiazole-2-carboxamide 4-methylbenzenesulfonate] was tested. Which Ki did it give?
The Ki was 50 to 80 nM.

Which Ki does the source give for O=C(N[C@H]1CN2CCC1CC2)c1ncc(-c2cccc([N+](=O)[O-])c2)s1 [Example 92, N-[(3R)-1-azabicyclo[2.2.2]oct-3-yl]-5-(3-nitrophenyl)-1,3-thiazole-2-carboxamide 4-medhylbenzenesulfonate] here?
Its Ki is 190 to 375 nM.

With O=C(N[C@H]1CN2CCC1CC2)c1ccc(Oc2ccccc2)s1 [Example 40, N-[(3R)-1-Azabicyclo[2.2.2]oct-3-yl]-5-phenoxy-thiophene-2-carboxamide Hydrochloride] as the compound, how does the Ki read?
The Ki was 12 to 16 nM.

How did the Ki turn out when O=C(N[C@H]1CN2CCC1CC2)c1ccc(C#Cc2ccccc2)o1 [Example 150, N-[(3R)-1-Azabicyclo[2.2.2]oct-3-yl]-5-(phenylethynyl)-furan-2-carboxamide 4-Methylbenzenesulfonate] was run?
Its Ki is 290 to 330 nM.

Which Ki does the source give for O=C(N[C@H]1CN2CCC1CC2)c1ccc(-c2ccc(F)c(F)c2)o1 [Example 132, N-[(3R)-1-azabicyclo[2.2.2]oct-3-yl]-5-(3,4-difluorophenyl)-furan-2-carboxamide hydrochloride] here?
Its Ki is 875 to 2080 nM.

Cn1c(C(=O)N[C@H]2CN3CCC2CC3)ccc1-c1ccccc1 [Example 152, N-[(3R)-1-Azabicyclo[2.2.2]oct-3-yl]-1-methyl-5-phenyl-1H-pyrrole-2-carboxamide] was tested. Which Ki did it give?
Its Ki is 20 to 65 nM.

How did the Ki turn out when O=C(N[C@H]1CN2CCC1CC2)c1ccc(-c2ccccc2F)o1 [Example 113, N-[(3R)-1-azabicyclo[2.2.2]oct-3-yl]-5-(2-fluorophenyl)-furan-2-carboxamide 4-methylbenzenesulfonate] was run?
Its Ki is 90 to 125 nM.

For O=C(N[C@H]1CN2CCC1CC2)c1ccc(-c2ccccc2Cl)o1 [Example 104, N-((3R)-1-azabicyclo[2.2.2]oct-3-yl]-5-(2-chlorophenyl)-furan-2-carboxamide toluene sulfonate], which Ki is on record?
Its Ki is 20 to 130 nM and 75 nM.

With O=C(N[C@H]1CN2CCC1CC2)c1ccc(-c2cc3ccccc3o2)o1 [Example 146, N-[(3R)-1-azabicyclo[2.2.2]oct-3-yl]-5-(1-benzofuran-2-yl)-furan-2-carboxamide 4-methylbenzenesulfonate] as the compound, how does the Ki read?
Its Ki is 35 to 140 nM.

With O=C(N[C@H]1CN2CCC1CC2)c1ccc(-c2cccc(C(F)(F)F)c2)o1 [Example 109, N-[(3R)-1-azabicyclo[2.2.2]oct-3-yl]-5-[3-(trifluoromethyl)-phenyl]-furan-2-carboxamide fumarate] as the compound, how does the Ki read?
The Ki was 1.5 to 6 nM.

O=C(N[C@H]1CN2CCC1CC2)c1cnc(-c2ccccc2F)s1 [Example 52, N-[(3R)-1-Azabicyclo[2.2.2]oct-3-yl]-2-(2-fluorophenyl)-1,3-thiazole-5-carboxamide Citrate] was tested. Which Ki did it give?
The Ki was 340 to 480 nM.

With O=C(N[C@H]1CN2CCC1CC2)c1ccc(-c2cccc(OC(F)(F)F)c2)o1 [Example 120, N-[(3R)-1-azabicyclo[2.2.2]oct-3-yl]-5-[3-(trifluoromethoxy)phenyl]-furan-2-carboxamide 4-methylbenzenesulfonate] as the compound, how does the Ki read?
The Ki was 1050 nM.

How did the Ki turn out when Cc1ccccc1-c1ccc(C(=O)N[C@H]2CN3CCC2CC3)o1 [Example 135, N-[(3R)-1-azabicyclo[2.2.2]oct-3-yl]-5-(2-methylphenyl)-furan-2-carboxamide 4-methylbenzenesulfonate] was run?
The Ki was 16 to 45 nM.

Which Ki does the source give for O=C(N[C@H]1CN2CCC1CC2)c1ccc(Br)s1 [Example 26, N-[(3R)-1-azabicyclo[2.2.2]oct-3-yl]-5-bromo-thiophene-2-carboxamide] here?
Its Ki is 5 to 20 nM.

Which Ki does the source give for O=C(N[C@H]1CN2CCC1CC2)c1ccc(-c2cc(F)ccc2F)o1 [Example 117, N-[(3R)-1-azabicyclo[2.2.2]oct-3-yl]-5-(2,5-difluorophenyl)-furan-2-carboxamide hydrochloride] here?
The Ki was 1860 nM.

For O=C(N[C@H]1CN2CCC1CC2)c1ccc(Cl)s1 [Example 23, N-[(3R)-1-azabicyclo[2.2.2]oct-3-yl]-5-chloro-thiophene-2-carboxamide], which Ki is on record?
The Ki was 6 to 10 nM.

With COc1ccc(C(=O)N[C@H]2CN3CCC2CC3)s1 [Example 19, N-[(3R)-1-Azabicyclo[2.2.2]oct-3-yl]-5-methoxy-thiophene-2-carboxamide Hydrochloride] as the compound, how does the Ki read?
Its Ki is 24 nM.

With CSc1ccc(C(=O)N[C@H]2CN3CCC2CC3)s1 [Example 22, N-[(3R)-1-Azabicyclo[2.2.2]oct-3-yl]-5-(methylsulfanyl)-thiophene-2-carboxamide] as the compound, how does the Ki read?
The Ki was 1 to 6 nM.

Which Ki does the source give for Cc1ccc(C(=O)N[C@H]2CN3CCC2CC3)s1 [Example 25, N-[(3R)-1-azabicyclo[2.2.2]oct-3-yl]-5-methyl-thiophene-2-carboxamide] here?
Its Ki is 10 to 15 nM.

Which Ki does the source give for Cc1ccc(-c2ccc(C(=O)N[C@H]3CN4CCC3CC4)s2)s1 [Example 14, N-[(3R)-1-Azabicyclo[2.2.2]oct-3-yl]-5′-methyl-2,2′-bithiophene-5-carboxamide Hydrochloride] here?
Its Ki is 12 to 16 nM.

O=C(N[C@H]1CN2CCC1CC2)c1ccc(-c2ccccc2OC(F)(F)F)o1 [Example 138, N-[(3R)-1-azabicyclo[2.2.2]oct-3-yl]-5-[2-(trifluoromethoxy)phenyl]-furan-2-carboxamide 4-methylbenzenesulfonate] was tested. Which Ki did it give?
The Ki was 525 to 590 nM.

O=C(N[C@H]1CN2CCC1CC2)c1ccc(-c2ccc([N+](=O)[O-])cc2)o1 [Example 112, N-[(3R)-1-azabicyclo[2.2.2]oct-3-yl]-5-(4-nitrophenyl)-furan-2-carboxamide 4-methylbenzenesulfonate] was tested. Which Ki did it give?
Its Ki is 5 to 24 nM.

— patent US6500840B2, “Quinuclidine-substituted heteroaryl moieties for treatment of disease” (Pharmacia & Upjohn Company, priority 2000, dated 2002)
